One assay has as its target T1, pro-cath-D (Homo sapiens, UniProt P07339).
T1 construct: the 52, 34, 14 and 4 kDa cath-D fragments were expressed as GST fusion proteins; made in house; host or cells: Escherichia coli BL21 (GST fusion)
Kind of assay: GST pull-down: competition for binding of LRP1β (1-476) to GST-pro-cath-D. The conditions noted are these: radio-labelled LRP1β (1-476), beads with GST-cath-D/52K, increasing concentration of the peptide; Fig. 2C. On the procedure:
• (A) Schematic representation of GST-LRP1β fragments. Shorter GST-LRP1β fragments (F4, F6-F8) were derived from GST-LRP1β (307-479) (F0). The F4 (349-394) GST-LRP1β fragment was then sub-divided into shorter fragments (F5, F9-13). • (B) Binding of pro-cath-D to GST-LRP1β fragments. Radio-labelled pro-cath-D was incubated with beads containing GST-LRP1β fragments or GST. GST proteins bound to beads were stained by Coomassie (panels a, c) and bound pro-cath-D was detected by autoradiography (panels b, d). • (C) Effect of the (349-397) LRP1 peptide for the binding of the extracellular domain of LRP1β (1-476) to pro-cath-D. Schematic representation and numbering of the EGF-like repeats 16 to 22 present in the extracellular domain of LRP1β is shown in panel a. Radio-labelled extracellular domain of LRP1β (1-476) was incubated with beads containing GST-cath-D/52K in the absence or presence of increasing concentration of the (349-397) LRP1 peptide (panel b). GST proteins stained by Coomassie are shown in left panel and bound LRP1β (1-476) in right panel .
GST pull-down assays. [^35S]methionine-labelled pro-cath-D or LRP1β(1-476) were obtained by transcription and translation of pcDNA3.1(-)cath-D or pcONA3.1(+)LRP1β extracellular domain(1-476) expression plasmids, respectively, using the TNT^T7-coupled reticulocyte lysate system (Promega). […]

For assay [1], the target named is auto-activated pro-cath-D (Homo sapiens, UniProt P07339). Kind of assay: Cleavage of the LRP1 [349-397] peptide by auto-activated pro-cath-D (HPLC, NH2-terminal sequencing). The assay is classed as biochemical. The conditions noted are these: pro-cath-D 500 ng auto-activated at pH 3.5 for 30 min, 2 h with 50 µM peptide at pH 3.5. The source says: (§1) • (A) Shedding of LRP1 β chain ectodomain. SEAP activity was quantified in the medium of COS cells transiently transfected with SEAP-LRP1β and β-galactosidase vectors in the absence or presence of cath-D vector (panel a). The mean ± SD of 4 independent determinations with both transfections and measurements carried in duplicate is shown *, p<0.0025 versus control (Student's t-test). […] A representative experiment from a transfection performed in duplicate is shown. Similar results were obtained in another independent experiment. • (B) Cleavage of the LRP1 [349-397] peptide by auto-activated pro-cath-D. Pro-cath-D (500 ng), auto-activated at pH 3.5 for 30 min, was incubated for 2 h with 50 µM of LRP1 [349-397] peptide at pH 3.5. Cleaved peptides were resolved by reverse-phase HPLC and subjected to NH2-terminal sequence analysis. Arrows indicate the 3 cleavage sites. • (C) Production of LRP1 β carboxyl-terminal fragment. COS cells, transfected with Myc-LRP1β in the absence or presence of wild-type or D231 N cath-D, were treated with DAPT (1 µM) or DMSO for 24 h. Cells were lysed and the full-length Myc-LRP1β and its carboxy-terminal fragment (LRP1β-CTF) were isolated by immunoprecipitation and visualized by immunoblotting with the monoclonal antibody 11H4. *, p<0.025 versus Luc siRNA HMF cells; **, p<0.0025 versus Luc siRNA HMF cells (Student's t-test).
Sequence of auto-activated pro-cath-D (P07339 65-412): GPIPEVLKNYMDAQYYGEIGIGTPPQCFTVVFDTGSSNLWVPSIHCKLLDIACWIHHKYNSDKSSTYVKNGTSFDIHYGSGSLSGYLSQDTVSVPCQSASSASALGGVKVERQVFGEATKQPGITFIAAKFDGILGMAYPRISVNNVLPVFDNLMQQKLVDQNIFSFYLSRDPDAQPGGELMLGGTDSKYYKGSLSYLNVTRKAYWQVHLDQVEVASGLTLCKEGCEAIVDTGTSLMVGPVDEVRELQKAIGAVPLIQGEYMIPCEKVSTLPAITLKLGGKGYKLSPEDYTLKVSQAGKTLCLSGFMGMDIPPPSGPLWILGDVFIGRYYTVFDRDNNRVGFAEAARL

In assay [2] the test system is LRP1β-CTF. Kind of assay: Production of LRP1β carboxyl-terminal fragment in COS cells (immunoprecipitation and immunoblotting). The assay is classed as cell-based. The conditions noted are these: COS cells transfected with Myc-LRP1β, DAPT 1 µM for 24 h; Fig. 5C.
From the text: as §1, with “Cells were lysed and the full-length Myc-LRP1β and its carboxy-terminal fragment (LRP1β-CTF) were isolated by immunoprecipitation and visualized by immunoblotting with the monoclonal antibody 11H4. *, p<0.025 versus Luc siRNA HMF cells; **, p<0.0025 versus Luc siRNA HMF cells (Student's t-test).” left out
(§2) Immunoblotting. […] Equal amounts of protein (100 µg) from cell extracts quantitated by the Bradford assay, or equal volumes (80 µl) of conditioned media, were separated by SDS-PAGE on a 7.5 % gel for anti-LRP1β immunoblotting or on a 12 % gel for anti-cath-D immuno-blotting. […]
A general note: Immunoblotting shows a protein as a band on a membrane.

Assay [3] concerns LRP1β-CTF. The assay can be described thus: Production of LRP1β-CTF and shedding of LRP1β in HMF fibroblasts. The conditions noted are these: DAPT 1 µM, 24 h, Fig. 6B panel a. The assay is classed as cell-based, human. On the procedure: (§3) • (A) Pro-cath-D is internalized in part by LRP1. Conditioned media containing labelled pro-cath-D was produced by incubating cath-D expressing 3Y1-Ad12 cells with [S^35]methionine and [S^35]cysteine for 24 h. HMF fibroblasts were transiently transfected with either Luc siRNA or LRP1 siRNA1 and endocytosis of labelled pro-cath-D was performed 48 h post-transfection. For endocytosis, siRNAs-transfected HMF fibroblasts were incubated for 3 h (panel a) or for 18h (panel c) with conditioned medium containing labelled pro-cath-D in the absence or presence of 10 mM M6P. Cell lysates containing endocytosed labelled cath-D were analyzed by SDS-PAGE after immunoprecipitation with M1G8 anti-cath-D antibody (panels a and c). LRP1β expression was monitored in HMF fibroblasts by immunoblotting 48 h post-transfection with either Luc or LRP1 siRNAs (panels b and d). ßactin was used as a loading control. […] LRP1β shedded in the media of HMF fibroblasts after 24 h in the presence of DAPT (1 µM) was detected by immmunoblotting with the monoclonal antibody #3501 directed against the extracellular LRP1 β chain (panel b). […]
as §2

A further assay has as its system SEAP-LRP1β. Kind of assay: LRP1 ectodomain secretion assay (SEAP activity in the medium). The assay is classed as cell-based. Conditions: cath-D expressing COS cells, pepstatin 100 µM; Fig. 5A panel b.
From the text: as §1, with “Cells were lysed and the full-length Myc-LRP1β and its carboxy-terminal fragment (LRP1β-CTF) were isolated by immunoprecipitation and visualized by immunoblotting with the monoclonal antibody 11H4. *, p<0.025 versus Luc siRNA HMF cells; **, p<0.0025 versus Luc siRNA HMF cells (Student's t-test).” left out
LRP1 ectodomain secretion assay. […] SEAP activity was normalized to […] activity measured by hydrolysis of o-nitrophenyl-β-D-galactopyranoside in cells lysed in the reporter lysis buffer (Promega).

In the next assay the test system is HMF fibroblasts. The assay can be described thus: Endocytosis of labelled pro-cath-D in HMF fibroblasts. The assay is classed as cell-based. The conditions noted are these: Homo sapiens, Fibroblast, over 3 h, 10 mM M6P, read-out: inhibition of pro-cath-D internalization. On the procedure:
as §3

Non-standard residues stand in square brackets, D forms with d. Residues, ends and D or L forms follow the SMILES beside them. *: point of attachment. Sta = CC(C)C[C@H](N)[C@@H](O)CC(=O)O; Isovaleryl = CC(C)CC(=O)*

From patent EP2045266A1, “Methods for treating and diagnosing a cancer secreting cath-D or Alzheimer's disease” (INSERM (Institut National de la Santé et de la Recherche …, priority 2007, dated 2009) come the findings set out here.

T1 sequence (P07339 21-412): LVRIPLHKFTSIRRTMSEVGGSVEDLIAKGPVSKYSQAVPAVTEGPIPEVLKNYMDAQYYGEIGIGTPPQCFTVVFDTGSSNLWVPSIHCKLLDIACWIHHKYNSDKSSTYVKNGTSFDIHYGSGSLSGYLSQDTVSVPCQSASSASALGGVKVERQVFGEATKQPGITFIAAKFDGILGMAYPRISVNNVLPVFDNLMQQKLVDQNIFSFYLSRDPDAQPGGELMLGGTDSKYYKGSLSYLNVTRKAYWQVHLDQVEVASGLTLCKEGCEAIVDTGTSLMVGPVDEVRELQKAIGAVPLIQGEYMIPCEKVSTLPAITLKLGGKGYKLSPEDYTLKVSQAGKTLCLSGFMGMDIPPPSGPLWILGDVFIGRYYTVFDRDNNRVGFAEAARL

Take “49-mer: polypeptide sequence of 49 amino acids corresponding to the 349-397 fragment of the extra-cellular LRP1 β chain, SEQ ID NO: 5 (CRCLPGFLGDRCQYRQCSGYCENFGTCQMAADGSRQCRCTAYFEGSRCE)”: the “competition for the binding of LRP1β (1-476) to GST-pro-cath-D” value with pro-cath-D was “competed efficiently”. The same compound registered a cleavage sites in assay [1] of 3. As for `C[C@H](NC(=O)Cc1cc(F)cc(F)c1)C(=O)N[C@H](C(=O)OC(C)(C)C)c1ccccc1` [DAPT], the “presence of LRP1β-CTF” value with LRP1β-CTF [2] is given as “strong increase”. Besides, the “level of membrane bound LRP1β-CTF” value in the assay with LRP1β-CTF [3] is given as “further increase”.

On to `CC(C)CC(=O)N[C@H](C(=O)N[C@H](C(=O)N[C@@H](CC(C)C)[C@@H](O)CC(=O)N[C@@H](C)C(=O)N[C@@H](CC(C)C)[C@@H](O)CC(=O)O)C(C)C)C(C)C` [pepstatin A] (Isovaleryl-VV[Sta]A[Sta]-OH), for which, in the assay on SEAP-LRP1β, the SEAP-LRP1β ectodomain shedding entry is listed as “prevented”. For the compound `O=C[C@@H](O)[C@@H](O)[C@H](O)[C@H](O)COP(=O)(O)O` [M6P, mannose-6-phosphate], the inhibition (in general, the drop in the measured response relative to a control, in per cent) at 10000 µM with HMF fibroblasts was 82%.
